Tested on: soybean meristem blocks
Experiment: Agrobacterium-mediated soybean transformation (SULE selective marker) with screening by external (dropwise) application of tribenuron methyl; positive plants verified by TaqMan
Format: cell-based, Glycine max
Procedure: Screening of soybean meristem block: After the recovery period, the meristem block was transferred to 60 ml of a proliferation medium without a selective agent (tribenuron methyl) (B5 salt 3.1 g/L, B5 vitamin, MES 1 g/L, sucrose 30 g/L, 6-BAP 1 mg/L, agar 8 g/L, cephalosporin 150 mg/L, glutamic acid 100 mg/L, aspartic acid 100 mg/L, pH 5.6), so that the soybean meristem block grew rapidly, and the screening and culturing was carried out for 5-9 days, preferably 7 days, under the conditions of a temperature of 24° C. and a photoperiod (light/dark) of 16:8. After the above soybean meristem block was proliferated for 5-9 days, tribenuron methyl herbicide (95% tribenuron methyl wettable powder) was externally applied in concentration of 1, 3, 5 and 7 μg to per ml of the proliferation medium, respectively, in which the diluted tribenuron methyl herbicide solution was added to the proliferation medium to cause selective growth of the transformed cells, and the screening and culturing was carried out at a temperature of 24° C. and a photoperiod (light/dark) of 16:8 for 2 weeks.
Regeneration of plant from resistant soybean tissue block: The resistant tissue blocks after the above screening treatment with four concentrations of tribenuron methyl were separately taken out from the proliferation medium containing tribenuron methyl, the dead tissues and cotyledons attached thereto were removed, the resistant tissue blocks were transferred to (obliquely inserted into) a B5 differentiation medium without selective agent (tribenuron methyl) (B5 salt 3.1 g/L, B5 vitamin, MES 1 g/L, sucrose 30 g/L, ZT 1 mg/L, agar 8 g/L, cephalosporin 150 mg/L, glutamic acid 50 mg/L, aspartic acid 50 mg/L, gibberellin 1 mg/L, auxin 1 mg/L, pH 5.6), and cultured for differentiation at a temperature of 24° C. and a photoperiod (light/dark) of 16:8 for 14-20 days, preferably 18 days. After the differentiation and growth of the above screened four resistant soybean tissue blocks for 14-20 days, […] of tribenuron methyl herbicide (95% tribenuron methyl wettable powder) was externally applied to per ml of the B5 differentiation medium, in which the diluted solution of tribenuron methyl herbicide was added dropwise to the B5 differentiation medium by a pipette, and the screening and culturing was continued at a temperature of 24° C. and a photoperiod (light/dark) of 16:8 until the resistant tissue blocks (transformed cells) regenerated into plants or the regenerated plants could survive.
In the present example, in the screening step of the above soybean meristem blocks and the plant regenerating step of the resistant soybean tissue blocks, the tribenuron methyl herbicide (95% tribenuron methyl wettable powder) was applied to per ml of the proliferation medium or the B5 differentiation medium, and the concentration examples of the diluted tribenuron methyl herbicide solution added dropwise to the proliferation medium or the B5 differentiation medium were shown in Table 1. The proliferated soybean meristem blocks were screened for tolerance to tribenuron methyl herbicide, and the specific information of the 12 treatments was shown in Table 2, and the screening results for each treatment were shown in Table 3, in which each treatment was repeated for 3 times.
The seedlings differentiated from the above 12 treatments were transferred to a B5 rooting medium (B5 salt 3.1 g/L, B5 vitamin, MES 1 g/L, sucrose 30 g/L, agar 8 g/L, cephalosporin 150 mg/L, indole-3-butyric acid (IBA) 1 mg/L, pH 5.6), cultured at 25° C. to a height of about 10 cm, and moved to a greenhouse to grow until fructification. The transgenic plants could be obtained by culturing at 26° C. for 16 hours and then at 20° C. for 8 hours per day in a greenhouse. […]

[1] = Treatment 1: 1 μg/ml proliferation medium, 3 μg/ml B5 differentiation medium
[2] = Treatment 1: 1 μg/ml proliferation medium, 3 μg/ml B5 differentiation medium, 50 initially germinated soybeans
[3] = Treatment 2: 1 μg/ml proliferation medium, 5 μg/ml B5 differentiation medium
[4] = Treatment 2: 1 μg/ml proliferation medium, 5 μg/ml B5 differentiation medium, 55 initially germinated soybeans
[5] = Treatment 3: 1 μg/ml proliferation medium, 7 μg/ml B5 differentiation medium
[6] = Treatment 3: 1 μg/ml proliferation medium, 7 μg/ml B5 differentiation medium, 75 initially germinated soybeans
[7] = Treatment 4: 3 μg/ml proliferation medium, 3 μg/ml B5 differentiation medium
[8] = Treatment 4: 3 μg/ml proliferation medium, 3 μg/ml B5 differentiation medium, 55 initially germinated soybeans
[9] = Treatment 5: 3 μg/ml proliferation medium, 5 μg/ml B5 differentiation medium
[10] = Treatment 5: 3 μg/ml proliferation medium, 5 μg/ml B5 differentiation medium, 60 initially germinated soybeans
[11] = Treatment 6: 3 μg/ml proliferation medium, 7 μg/ml B5 differentiation medium, 45 initially germinated soybeans
[12] = Treatment 7: 5 μg/ml proliferation medium, 3 μg/ml B5 differentiation medium
[13] = Treatment 7: 5 μg/ml proliferation medium, 3 μg/ml B5 differentiation medium, 50 initially germinated soybeans
[14] = Treatment 8: 5 μg/ml proliferation medium, 5 μg/ml B5 differentiation medium
[15] = Treatment 8: 5 μg/ml proliferation medium, 5 μg/ml B5 differentiation medium, 70 initially germinated soybeans
[16] = Treatment 9: 5 μg/ml proliferation medium, 7 μg/ml B5 differentiation medium
[17] = Treatment 9: 5 μg/ml proliferation medium, 7 μg/ml B5 differentiation medium, 43 initially germinated soybeans
[18] = Treatment 10: 7 μg/ml proliferation medium, 3 μg/ml B5 differentiation medium
[19] = Treatment 10: 7 μg/ml proliferation medium, 3 μg/ml B5 differentiation medium, 80 initially germinated soybeans
[20] = Treatment 11: 7 μg/ml proliferation medium, 5 μg/ml B5 differentiation medium
[21] = Treatment 11: 7 μg/ml proliferation medium, 5 μg/ml B5 differentiation medium, 75 initially germinated soybeans
[22] = Treatment 12: 7 μg/ml proliferation medium, 7 μg/ml B5 differentiation medium
[23] = Treatment 12: 7 μg/ml proliferation medium, 7 μg/ml B5 differentiation medium, 80 initially germinated soybeans

COC(=O)c1ccccc1S(=O)(=O)NC(=O)N(C)c1nc(C)nc(OC)n1 [tribenuron methyl] was tested, and the Positive plant rate [1] was 22.2%, the Transformation efficiency [1] was 12.0% and the “Number of positive plants” value [2] was 6 plant. For the same molecule, the Number of seedlings [2] was 27 plant, the Positive plant rate [3] was 25.0% and the Transformation efficiency [3] was 10.9%. For the same molecule, the “Number of positive plants” value [4] was 6 plant, the Number of seedlings [4] was 24 plant and the Positive plant rate [5] was 50.0%. For the same molecule, the Transformation efficiency [5] was 6.7%, the “Number of positive plants” value [6] was 5 plant and the Number of seedlings [6] was 10 plant. The Positive plant rate [7] was 20.0%, the Transformation efficiency [7] was 9.1% and the “Number of positive plants” value [8] was 5 plant. For the same molecule, the Number of seedlings [8] was 25 plant, the Positive plant rate [9] was 21.4% and the Transformation efficiency [9] was 10.0%. For the same molecule, the “Number of positive plants” value [10] was 6 plant, the Number of seedlings [10] was 28 plant and the Positive plant rate (Treatment 6: 3 μg/ml proliferation medium, 7 μg/ml B5 differentiation medium) was 47.8%. The “Number of positive plants” value [11] was 11 plant, the Number of seedlings [11] was 23 plant and the Positive plant rate [12] was 36.8%. The Transformation efficiency [12] was 14.0%, the “Number of positive plants” value [13] was 7 plant and the Number of seedlings [13] was 19 plant. The Positive plant rate [14] was 25.0%, the Transformation efficiency [14] was 5.7% and the “Number of positive plants” value [15] was 4 plant. The Number of seedlings [15] was 16 plant, the Positive plant rate [16] was 62.5% and the Transformation efficiency [16] was 11.6%. For the same molecule, the “Number of positive plants” value [17] was 5 plant, the Number of seedlings [17] was 8 plant and the Positive plant rate [18] was 60.0%. For the same molecule, the Transformation efficiency [18] was 11.3%, the “Number of positive plants” value [19] was 9 plant and the Number of seedlings [19] was 15 plant. For the same molecule, the Positive plant rate [20] was 77.7%, the Transformation efficiency [20] was 9.3% and the “Number of positive plants” value [21] was 7 plant. For the same molecule, the Number of seedlings [21] was 9 plant, the Positive plant rate [22] was 80.0% and the Transformation efficiency [22] was 5.0%. The “Number of positive plants” value [23] was 4 plant and the Number of seedlings [23] was 5 plant.
